Assay [1] in a line: Binding affinity to 5'-GCCGGCCC-3' DNA hairpin assessed as change in fluorescence intensity at 1 uM after 45 mins by fluorescence quenching analysis relative to control.
Assay [2] can be described thus: Binding affinity to 5'-CGGGCCCG-3' DNA hairpin assessed as change in fluorescence intensity at 1 uM after 45 mins by fluorescence quenching analysis relative to control.
Assay [3] in a line: Binding affinity to 5'-CGCGCCGG-3' DNA hairpin assessed as change in fluorescence intensity at 1 uM after 45 mins by fluorescence quenching analysis relative to control.
Assay [4] is described as follows: Binding affinity to 5'-CCGCGCGG-3' DNA hairpin assessed as change in fluorescence intensity at 1 uM after 45 mins by fluorescence quenching analysis relative to control.
Assay [5] is described as follows: Binding affinity to 5'-GCGCGGGC-3' DNA hairpin assessed as change in fluorescence intensity at 1 uM after 45 mins by fluorescence quenching analysis relative to control.
Assay [6] can be described thus: Binding affinity to 5'-GCGGGCGC-3' DNA hairpin assessed as change in fluorescence intensity at 1 uM after 45 mins by fluorescence quenching analysis relative to control.

Structures are written as SMILES.

For the molecule `NCC1O[C@H](O[C@H]2[C@@H](O)[C@H](O[C@@H]3[C@@H](O)[C@H](N)C[C@H](N)[C@H]3O[C@H]3O[C@H](CN)[C@@H](O)[C@H](O)[C@H]3N)O[C@@H]2CSCCNC(=O)CCSCC(=O)Nc2ccc(-c3c4ccc(=O)cc-4oc4cc(O)ccc34)c(C(=O)O)c2)[C@H](N)[C@@H](O)[C@@H]1O` (stereo partly specified), the Activity in assay [1] amounted to 37.6%; in assay [2] it was 41.3%; in assay [3], 43.8%; in assay [4], 47.2%; in assay [5], 51.8%; in assay [6], 53.7%.

For the origin of these results see ChEMBL document CHEMBL4000244, “Probing A-form DNA: A fluorescent aminosugar probe and dual recognition by anthraquinone-neomycin conjugates” (Bioorg Med Chem, 2017).
